According to PMC6204821, “Inhibitory effect of microalgae and cyanobacteria extracts on influenza virus replication and neuraminidase activity” (PeerJ, 2018):

Columns and labels:
[1] = test system: A(H1N1)pdm09-WT (A/California/04/2009); assay: microbe, parasite or virus in culture; assay type: cell-based; details: Influenza A virus, H1N1, MDCK, read-out: EC50 A(H1N1)pdm09-WT
[2] = test system: A(H3N2)-WT (A/Switzerland/9715293/2013); assay: microbe, parasite or virus in culture; assay type: cell-based; details: Influenza A virus, H3N2, MDCK, read-out: EC50 A(H3N2)-WT
in vitro = details: dog
Method: One hundred microliters of 2.0 × 10^4 MDCK cells were seeded into the 96-well culture plates (flat bottom) and grown for 24 h at 37 °C in a 5% CO2 atmosphere, then, the extracts were added with a final concentration of 1 mg/mL in DMEM. […] The extracts were diluted in culture medium DMEM, the DMSO final concentration was equal to 1.0% (v/v). After 48 h of cells incubation with extracts or vehicle (DMSO), a freshly prepared XTT (Sigma) solution was added, as specified by the manufacturer’s instructions. […] The cell viability was calculated by the comparison between absorbance (A475 nm–A660 nm) from treated (A) and untreated (B) cells using the formula: A/B × 100. Tests were carried out performing three replicates (n = 3).

[3] = target: neuraminidase of B/Perth/211/2001 Yam (WT) (Influenza B virus, UniProt Q3S340); assay: biochemical; details: read-out: NA Activity (%)
Chain of neuraminidase of B/Perth/211/2001 Yam (WT) (Q3S340 1-466): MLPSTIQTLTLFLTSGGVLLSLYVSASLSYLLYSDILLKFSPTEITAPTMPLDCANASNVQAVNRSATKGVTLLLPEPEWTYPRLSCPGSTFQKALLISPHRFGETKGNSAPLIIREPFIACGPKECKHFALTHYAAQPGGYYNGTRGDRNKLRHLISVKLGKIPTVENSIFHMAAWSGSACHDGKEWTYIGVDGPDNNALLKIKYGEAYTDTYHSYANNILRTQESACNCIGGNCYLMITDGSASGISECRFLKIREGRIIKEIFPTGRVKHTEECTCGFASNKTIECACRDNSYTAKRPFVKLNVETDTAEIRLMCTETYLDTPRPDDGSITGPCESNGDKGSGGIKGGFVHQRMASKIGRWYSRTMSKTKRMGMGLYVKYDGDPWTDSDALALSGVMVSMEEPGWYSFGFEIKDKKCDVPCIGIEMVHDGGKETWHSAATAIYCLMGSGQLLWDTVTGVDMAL

| SMILES | EC50 [1] [µM] | EC50 [2] [µM] | CC50 at 48 h (in vitro) [µM] | activity at 10 pM [3] [%] | activity at 0.0001 µM [3] [%] | activity at 0.001 µM [3] [%] | activity at 0.01 µM [3] [%] | activity at 0.1 µM [3] [%] | activity at 1 µM [3] [%] |
| --- | --- | --- | --- | --- | --- | --- | --- | --- | --- |
| CCC(CC)O[C@@H]1C=C(C(=O)O)C[C@H](N)[C@H]1NC(C)=O [OST-car, Oseltamivir carboxylate] | 0.012 | 0.032 | 2130 |  |  |  |  |  |  |
| CCOC(=O)C1=C[C@@H](OC(CC)CC)[C@H](NC(C)=O)[C@@H](N)C1 [Oseltamivir] |  |  |  | 104 | 118 | 92 | 32 | 11 | 11 |
